Results as given in patent publication US9427415B2, “Methods and compositions for modifying sensorial perception” (The Procter & Gamble Company, priority 2014, dated 2016).
Like-named read-outs stand apart in the source and are kept apart here.

Columns and labels:
TRPA1V1 = assay: Intracellular calcium (Fluo-4, FLIPR) activation of TRPA1V1 cells (co-expressing TRPA1 and TRPV1) by GRAS compounds; type: cell-based, human;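 further: HEK293 cells co-expressing TRPA1 and TRPV1, fluorescence read at 488/514 nm after baseline subtraction, recorded every 2 s over 10 min, ionomycin 10 µM and buffer as controls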
human TRPV1 = target: T1, human TRPV1 (Homo sapiens, UniProt Q8NER1, M315I/T336M); assay: Intracellular calcium (Fluo-4, FLIPR) activation of TRPV1 cells by GRAS compounds; type: cell-based; settings: relative to capsaicin 350 nM; for activation at 1000 µM / V1 activation, % of agonist value: 1 mM; for activation at 1000 µM / activation at 100 µM: read-out: V1 activation, % of agonist value; for activation at 100 µM: 100 μM (marked *);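 on all read-outs here: TRPV1-expressing cells, FLIPR fluorescence at 488/514 nm with baseline subtracted, sampled every 2 s for 10 min after adding compound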
T1 construct: expressed in transfected cells; pcDNA3 control cells
T1 sequence (Q8NER1 whole entry M315I/T336M): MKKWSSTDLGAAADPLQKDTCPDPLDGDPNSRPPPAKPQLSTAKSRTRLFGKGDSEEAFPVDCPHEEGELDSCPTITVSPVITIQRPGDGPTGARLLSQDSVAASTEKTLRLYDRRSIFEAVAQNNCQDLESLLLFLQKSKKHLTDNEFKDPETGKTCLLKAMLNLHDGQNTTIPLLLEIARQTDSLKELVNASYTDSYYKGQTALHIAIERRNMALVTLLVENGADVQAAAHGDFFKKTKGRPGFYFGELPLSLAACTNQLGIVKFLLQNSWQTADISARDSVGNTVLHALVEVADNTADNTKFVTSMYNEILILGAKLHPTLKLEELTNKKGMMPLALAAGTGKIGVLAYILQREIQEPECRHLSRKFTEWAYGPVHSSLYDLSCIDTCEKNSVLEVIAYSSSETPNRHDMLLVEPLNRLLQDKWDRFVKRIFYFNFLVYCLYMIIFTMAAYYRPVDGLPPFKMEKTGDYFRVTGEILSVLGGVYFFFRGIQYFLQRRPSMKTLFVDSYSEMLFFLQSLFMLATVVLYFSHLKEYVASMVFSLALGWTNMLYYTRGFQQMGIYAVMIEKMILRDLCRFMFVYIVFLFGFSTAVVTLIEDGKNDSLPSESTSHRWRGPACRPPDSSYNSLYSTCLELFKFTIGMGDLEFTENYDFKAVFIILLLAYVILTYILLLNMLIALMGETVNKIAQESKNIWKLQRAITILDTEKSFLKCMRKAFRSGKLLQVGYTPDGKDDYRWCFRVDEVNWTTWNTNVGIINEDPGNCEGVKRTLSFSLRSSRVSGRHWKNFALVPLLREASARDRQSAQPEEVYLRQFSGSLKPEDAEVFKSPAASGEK

human TRPA1 = target: T2, human TRPA1 (Homo sapiens, UniProt O75762, K186N/R3C/R58T); assay: Intracellular calcium (Fluo-4, FLIPR) activation of TRPA1 cells by GRAS compounds; type: cell-based; settings: 1 mM, relative to AITC 30 μM; for activation at 1000 µM: read-out: A1 activation, % of agonist value;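 on all read-outs here: TRPA1-expressing cells, fluorescence read on a FLIPR Tetra (ex 488 nm, em 514 nm) every 2 s for 10 min after compound addition, baseline subtracted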
T2 construct: expressed in transfected cells; pcDNA3 control cells
T2 sequence (O75762 whole entry R3C/R58T/K186N): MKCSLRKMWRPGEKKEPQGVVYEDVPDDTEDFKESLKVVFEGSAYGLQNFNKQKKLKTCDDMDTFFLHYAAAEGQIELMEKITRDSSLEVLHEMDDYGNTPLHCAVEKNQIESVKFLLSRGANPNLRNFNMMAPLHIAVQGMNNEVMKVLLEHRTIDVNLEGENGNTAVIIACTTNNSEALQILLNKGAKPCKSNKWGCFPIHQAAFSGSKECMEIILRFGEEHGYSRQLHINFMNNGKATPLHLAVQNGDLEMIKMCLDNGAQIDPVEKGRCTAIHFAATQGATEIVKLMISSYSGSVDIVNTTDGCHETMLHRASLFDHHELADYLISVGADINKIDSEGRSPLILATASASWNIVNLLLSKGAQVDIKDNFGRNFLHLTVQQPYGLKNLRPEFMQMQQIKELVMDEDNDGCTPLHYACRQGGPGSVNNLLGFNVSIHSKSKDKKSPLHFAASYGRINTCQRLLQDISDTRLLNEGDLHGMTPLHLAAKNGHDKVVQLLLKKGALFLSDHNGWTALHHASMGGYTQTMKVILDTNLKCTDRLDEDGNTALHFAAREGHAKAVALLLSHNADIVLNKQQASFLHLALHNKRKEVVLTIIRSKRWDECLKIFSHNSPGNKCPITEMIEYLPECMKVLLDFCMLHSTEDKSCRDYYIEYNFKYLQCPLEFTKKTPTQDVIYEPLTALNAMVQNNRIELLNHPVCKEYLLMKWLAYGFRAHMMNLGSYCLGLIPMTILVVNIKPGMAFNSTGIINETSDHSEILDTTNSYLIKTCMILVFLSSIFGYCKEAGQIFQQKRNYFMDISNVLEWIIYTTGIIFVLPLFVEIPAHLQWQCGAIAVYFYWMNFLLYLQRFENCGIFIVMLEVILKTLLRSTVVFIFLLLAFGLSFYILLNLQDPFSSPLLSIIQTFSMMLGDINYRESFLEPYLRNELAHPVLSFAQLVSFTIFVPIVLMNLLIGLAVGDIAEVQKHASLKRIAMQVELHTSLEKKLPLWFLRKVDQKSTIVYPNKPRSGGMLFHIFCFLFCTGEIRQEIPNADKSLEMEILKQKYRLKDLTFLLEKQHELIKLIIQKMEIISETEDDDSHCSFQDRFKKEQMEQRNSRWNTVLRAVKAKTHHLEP

[1] = Table 1(h), 1 mM, relative to capsaicin 350 nM
[2] = Table 1(g), 1 mM, relative to capsaicin 350 nM
[3] = Table 1(h), 100 μM (marked *), relative to capsaicin 350 nM
[4] = Table 1(f), 1 mM, relative to capsaicin 350 nM
[5] = Table 1(c), 1 mM, relative to AITC 30 μM
[6] = Table 1(d), 1 mM, relative to AITC 30 μM
[7] = Table 1(e), 1 mM, relative to AITC 30 μM

O=C([O-])[C@H](O)[C@@H](O)[C@H](O)[C@H](O)CO.[K+] [Gluconic acid, monopotassium salt]
A1V1 activation, % of agonist value (TRPA1V1; [1]): 14.0%
activation at 1000 µM (human TRPV1; Table 1(h)): 33%

O=C(O)CCCCC(=O)O [Adipic acid]
A1V1 activation, % of agonist value (TRPA1V1; [2]): 70.4%
activation at 1000 µM (human TRPV1; Table 1(g)): 47.6%

COc1ccccc1 [Anisole]
A1V1 activation, % of agonist value (TRPA1V1; [3]): 34.7%
activation at 100 µM (human TRPV1; Table 1(h)): 48.3%

CCCCCCCC=CC=CC=O [2,4-Dodecadienal]
A1V1 activation, % of agonist value (TRPA1V1; [3]): 53.5%
activation at 100 µM (human TRPV1; Table 1(h)): 199%

CSCc1ccco1 [Furfuryl methyl sulfide]
A1V1 activation, % of agonist value (TRPA1V1; [2]): 111.6%
activation at 1000 µM (human TRPV1; Table 1(g)): 50.1%

Tolylaldehyde glyceryl acetyl
A1V1 activation, % of agonist value (TRPA1V1; [2]): 110.7%
V1 activation, % of agonist value (human TRPV1; Table 1(g)): 53.0%

c1ccc2[nH]ccc2c1 [Indole]
A1V1 activation, % of agonist value (TRPA1V1; [4]): 42.9%
activation at 1000 µM (human TRPV1; Table 1(f)): 53.3%

Cc1ccc(C=O)c(O)c1 [m-Homosalicylaldehyde]
A1V1 activation, % of agonist value (TRPA1V1; [2]): 140.7%
activation at 1000 µM (human TRPV1; Table 1(g)): 56.5%

O=C(/C=C/C=C/c1ccc2c(c1)OCO2)N1CCCCC1 [Piperine]
A1V1 activation, % of agonist value (TRPA1V1; [1]): 57.1%
activation at 1000 µM (human TRPV1; Table 1(h)): 120%

CC(=O)CCc1ccc(OC(C)=O)cc1 [4-(p-Acetoxyphenyl)-2-butanone]
A1V1 activation, % of agonist value (TRPA1V1; [2]): 91.8%
activation at 1000 µM (human TRPV1; Table 1(g)): 58.9%

CC(C=O)=Cc1ccccc1 [alpha-Methylcinnamaldehyde]
A1V1 activation, % of agonist value (TRPA1V1; [2]): 104.4%
activation at 1000 µM (human TRPV1; Table 1(g)): 54.6%

CCCCCc1cccc(=O)o1 [6-Pentyl-alpha-pyrone]
A1V1 activation, % of agonist value (TRPA1V1; [2]): 95.2%
V1 activation, % of agonist value (human TRPV1; Table 1(g)): 66.1%

Cc1ccc(C)c(O)c1 [2,5-Dimethylphenol]
A1V1 activation, % of agonist value (TRPA1V1; [1]): 34.2%
activation at 1000 µM (human TRPV1; Table 1(h)): 81.2%

Cc1ccc(C(C)CC=O)o1 (stereo not shown) [3-(5-Methyl-2-furyl)butanal]
A1V1 activation, % of agonist value (TRPA1V1; [4]): 91.6%
activation at 1000 µM (human TRPV1; Table 1(f)): 103%

O=C(O)c1ccc(O)c(O)c1 [Protocatechuic acid]
A1V1 activation, % of agonist value (TRPA1V1; [2]): 121.05%
activation at 1000 µM (human TRPV1; Table 1(g)): 60.6%

Cc1cccc(C)c1O [2,6-Dimethylphenol]
A1V1 activation, % of agonist value (TRPA1V1; [1]): 45.8%
activation at 1000 µM (human TRPV1; Table 1(h)): 72.1%

CC(C)[C@@H]1CC[C@@H](C)C[C@@H]1O [(+)-Neomenthol]
A1V1 activation, % of agonist value (TRPA1V1; [1]): 44.8%
V1 activation, % of agonist value (human TRPV1; Table 1(h)): 68.8%

CC1SCCS1 [1,3-Dithiolane, 2-methyl-]
A1V1 activation, % of agonist value (TRPA1V1; [2]): 119.9%
activation at 1000 µM (human TRPV1; Table 1(g)): 66.2%

CC(=O)OCCC(C)C [Isoamyl acetate]
activation at 1000 µM (human TRPA1; Table 1(c)): 49.6%
A1V1 activation, % of agonist value (TRPA1V1; [5]): 61.80%

CCCCC/C=C/C=C/C=O [(E,E)-2,4-Decadienal]
activation at 1000 µM (human TRPA1; Table 1(d)): 142%
A1V1 activation, % of agonist value (TRPA1V1; [6]): 46%

CC1=CC(=O)[C@@H](C(C)C)CC1 [L-Piperitone]
A1 activation, % of agonist value (human TRPA1; Table 1(e)): 45%
A1V1 activation, % of agonist value (TRPA1V1; [7]): 68.40%

CNc1ccccc1C(=O)OCC(C)C [Isobutyl N-methyl anthranilate]
A1 activation, % of agonist value (human TRPA1; Table 1(d)): 59.73%
A1V1 activation, % of agonist value (TRPA1V1; [6]): 36.7%

CCCCCCCCCC(=O)O [Decanoic acid]
activation at 1000 µM (human TRPA1; Table 1(c)): 65.1%
A1V1 activation, % of agonist value (TRPA1V1; [5]): 73.45%

O=CC(=Cc1ccco1)c1ccccc1 [2-Furanacrolein, alpha-phenyl-]
A1V1 activation, % of agonist value (TRPA1V1; [4]): 66.2%
V1 activation, % of agonist value (human TRPV1; Table 1(f)): 55.7%

CC(C)C(=O)OCC(C)c1ccccc1 (stereo not shown) [2-Phenylpropyl isobutyrate]
activation at 1000 µM (human TRPA1; Table 1(e)): 67.4%
A1V1 activation, % of agonist value (TRPA1V1; [7]): 102.3%

CCCCCCCCCO [Nonyl alcohol]
activation at 1000 µM (human TRPA1; Table 1(c)): 71.1%
A1V1 activation, % of agonist value (TRPA1V1; [5]): 69.4%
